For assay [1], the system named is Geller Conflict Paradigm in Rats. Put plainly: Geller Conflict Paradigm in Rats (anxiolytic activity). The following applies: i.p. The assay is classed as in vivo. From the text: The intraperitoneal (i.p.) dosages at which the following compounds show anxiolytic activity are: […]
Assay [2] has as its system N-methyl-D-aspartic acid (NMDA)-induced seizures. Put plainly: N-Methyl-D,L-Aspartic Acid Induced Seizure Assay (NMDA protection). Format: in vivo. The following applies: male Swiss Webster mice, ip; N-methyl-D,L-aspartic acid 350 mg/kg challenge; absence of clonic seizures during 30 minute observation. The procedure: In this assay, male Swiss Webster mice (Charles River), 18-25 grams are used. Animals are ordered at 33 to 36 days of age and can be used for 8 days after arrival. They are housed for at least 24 hours in a climate controlled animal colony with food and water available ad libimm. On the day of testing, animals are brought to the laboratory and randomly assigned to groups. N-Methyl-D,L-aspartic acid (350 mg) is dissolved in 10 ml of saline and mixed thoroughly with a homogenizer for 1-2 minutes. Test compounds are prepared in distilled water and, if insoluable, a suitable surfactant is added. For a primary screen the test compound is administered at 60 mg/kg, ip (10 ml/kg), to groups of ten mice, 30 minutes prior to challenge with N-methyl-D,L-aspartic acid (350 mg/kg, […]). After N-Methyl-D,L-aspartic acid administration animals are placed individually in clear plastic cyclinders (12"×5.5"×1/4") and then observed for clonic seizures. N-methyl-D,L-aspartic acid will produce clonic seizures, and sometimes tonic seizures and death, in vehicle control animals.
A clonic convulsion is defined as a single episode of clonic spasms of a least a 3 second duration. […]
Data is calculated by the method of J. T. Litchfield, Jr. and F. Wileoxon. […]
The normalized percent protection is calculated using the following formula: [formula]

For the molecule `CN1C(=O)CN=C(c2ccccc2)c2cc(Cl)ccc21` [Diazepam, reference compound], the “Anti-Conflict Response % Change Compared to Control” value in assay [1] (10 mg/kg) was “+180%”; in assay [1] (20 mg/kg), “+630%”.
Consider “2-Amino-α-(3-methyl-3-thienyl)benzeneethanamine”, for which the “NMDA Protection ED50” value in assay [2] came to 19.0 mg/kg.
`CCNC(Cc1ccccc1N)c1sccc1C.Cl.Cl` (stereo not drawn) [2-Amino-N-ethyl-α-(3-methyl-2-thienyl)benzeneethanamine dihydrochloride]: the “Anti-Conflict Response % Change Compared to Control” value in assay [1] (1 mg/kg) is listed as “+100%”; in assay [1] (5 mg/kg), “+70%”.

(Values after patent publication US5510346A, “4-heteroaryl-1,3-benzodiazepines and 2-substituted-gamma-(heteroaryl)benzeneethanamines” (Hoechst Marion Roussel, Inc., priority 1991, dated 1996).)
